“Also recorded” adds a separate entry of the source. Like-named read-outs stand apart in the source and are kept apart here.
Legend:
[1] = biological target: T1, CDA (1-146aa), Human, His-tagged, Recombinant cytidine deaminase (Homo sapiens, UniProt P32320); format: in vitro ADME; details: PBS with cytidine deaminase, 37° C., about 30 minutes to 1 hour
T1 construct: CDA (1-146aa), Human, His-tagged; His tag; purchased ATGen
Description: 1 mg each of the 5′-dibenzyl phosphate derivatives of 5-azacytidines (formula (1)) was dissolved in 1 mL of acetonitrile. 10 μL of the solution was diluted with 1 mL of PBS. 10 μL of PBS solution of cytidine deaminase was added and stirred at 37° C. for about 30 minutes to 1 hour. 1 mL of acetonitrile was added to the reaction solution and separated by centrifugation. The supernatant obtained was analyzed with HPLC.
Cytidine deaminase: CDA (1-146aa), Human, His-tagged, Recombinant cytidine deaminase (ATGen)
Column: CAPCELL PAK ADME (4.6 mm×150 mm, particle size:3 μm)
Elution: A=Purified water containing 10 mM ammonium formate • B=Acetonitrile • Gradient mode: A:B=99:1→5:95/30 minutes

[2] = tested on: myeloma cells (RPMI-8226); assay: Anti-myeloma activity, inhibition of cell proliferation; format: cell-based; details: RPMI-8226, 72 hours incubation, cell count
Description: To the solutions containing about 4000 myeloma cells (RPMI-8226), solutions of 5′-dibenzyl phosphate derivatives of 5-azacytidines at concentrations of 0.0033 μM, 0.01 μM, 0.033 μM, 0.1 μM, 0.33 μM, 1 μM, 3.3 μM, 10 μM, 33 μM, or 100 μM were added. After incubation in RPMI-1640 (containing 10% FBS and 1% Penn-strep) for 72 hours, cell count was determined and the values of IC50 were calculated as inhibitory effect against cell proliferation (referring to Journal of Clinical Pathology, 2006, 59, 947-951).

[3] = Non-enzymatic hydrolysis reactivity in PBS solution at 37° C. (HPLC); format: physicochemical; details: for 5-Azacytidine or 2′-deoxy-5-azacytidine (%) After 4 hours / 5-Azacytidine or 2′-deoxy-5-azacytidine (%) After 8 hours / 5-Azacytidine or 2′-deoxy-5-azacytidine (%) After 24 hours: PBS pH7.4 to 7.5, 37° C.; for Hydrolysis in PBS solution to the corresponding 5-azacytidines (in words): 37° C., up to 24 hours
Description: About 1 mg each of the obtained 5′-dibenzyl phosphate derivatives of 5-azacytidines (referring to formula (1)), such as O,O′-dibenzyl 5-azacytidylate (compound A) or O,O′-dibenzyl 2′-deoxy-5-azacytidylate (compound B) was dissolved in 1 mL of acetonitrile. 5 μL of the solution was added to 100 μL of PBS solution (pH7.4 to 7.5) and the solution was stirred at 37° C. The reactions were traced by HPLC analysis.
HPLC conditions were same as those in test example 1.

[4] = Partition coefficient (n-octanol/PBS); format: physicochemical
Description: The separation systems using a silica gel column, separation yields, data obtained from instrumental analysis and partition coefficients of 5′-dibenzyl (or diphenethyl, diphenyl) phosphate derivatives of 5-azacytidines (compounds A to H) which were synthesized according to the methods A and B are shown as below.

T1 sequence (P32320 whole entry): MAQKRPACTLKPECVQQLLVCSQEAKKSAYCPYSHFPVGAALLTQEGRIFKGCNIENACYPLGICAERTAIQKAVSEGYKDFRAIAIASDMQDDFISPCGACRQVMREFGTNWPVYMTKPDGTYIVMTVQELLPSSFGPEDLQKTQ

Row | Molecule | Change in HPLC pattern (peak of the starting material) [1] | Change in HPLC pattern (peak of the starting material) ([1]; listed as 2′-deoxy-5-azacytidine) | IC50 ([2]; Homo sapiens) [nM] | IC50 [2] [nM] | 5-Azacytidine or 2′-deoxy-5-azacytidine (%) After 4 hours [3] [%] | 5-Azacytidine or 2′-deoxy-5-azacytidine (%) After 8 hours [3] [%] | 5-Azacytidine or 2′-deoxy-5-azacytidine (%) After 24 hours [3] [%] | Hydrolysis in PBS solution to the corresponding 5-azacytidines (in words) [3] | Partition coefficient, Log P [4]
1 | Nc1ncn([C@H]2C[C@H](O)[C@@H](CO)O2)c(=O)n1 [2′-Deoxy-5-azacytidine, 2′-deoxy-5-azacytidine, reference compound] | The peak of the starting material disappeared | disappeared completely | 30 |  |  |  |  |  | 
2 | O,O′-di(4-fluoro)benzyl 2′-deoxy-5-azacytidylate [compound D] | Almost no change in the peak of the starting |  |  | 780 |  |  |  |  | 
3 | O,O′-dibenzyl 2′-deoxy-5-azacytidylate [compound B] | Almost no change in the peak of the starting |  |  |  | 8 | 8 | 45 | gradually hydrolyzed | 
4 | O,O′-dibenzyl 5-azacytidylate [compound A] | Almost no change in the peak of the starting |  |  | 1710 | 18 | 35 | 67 | gradually hydrolyzed | 0.83
5 | O,O′-diphenethyl 5-azacytidylate [compound F] | Almost no change in the peak of the starting |  |  |  |  |  |  | almost no change was confirmed even after 24 hours; also recorded: could not be observed | 
6 | O,O′-diphenyl 2′-deoxy-5-azacytidylate [compound H] | extremely stable |  |  |  |  |  |  |  | 
7 | O,O′-diphenyl 5-azacytidylate [compound G] | extremely stable |  |  | > 100000 |  |  |  | almost no change was confirmed even after 24 hours; also recorded: could not be observed | 
